Values quoted from earlier work in publication PMC11340619 (Redox Biology, 2024).

Test system: hepatic I/R injury
Conditions: in mice; NRF2 agonist treatment; ref [14],[15]

Compound	hepatic I/R injury
C=C(CC(=O)O)C(=O)O [itaconate]	alleviate hepatic I/R injury in mice
C[S+]([O-])CCCCN=C=S (centres unmarked) [sulforaphane]	alleviate hepatic I/R injury in mice
